Holding throughout (test): NCI-60 cell line screen, 48 h
Assay [1] has as its system KM12 colon.
For assay [2], the system named is DU-145 prostate.
The subject of assay [3] is T-47D breast.
Assay [4] concerns A498 renal.
For assay [5], the system named is HCT-15 colon.
Assay [6] has as its system OVCAR-4 ovarian.
Assay [7] concerns ACHN renal.
The test system of assay [8] is TK-10 renal.
The subject of assay [9] is SF-268 CNS.
For assay [10], the system named is HOP-62 NSCLC.

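All cell lines were grown in 96-well plates and treated with compound for 48 hours. At the GI50, growth is halved. The concentration for full growth arrest is given as TGI.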

Turning to `O=C1c2cc3c(cc2CC1Cc1ccc2c(c1)CCC2)CCC3` (stereo not given), the TGI in [1] was > 100 µM; in assay [2], > 100 µM; in assay [3], 63.1 µM; in assay [4], > 100 µM; in assay [5], > 100 µM; in [6], > 100 µM. For the same compound, the TGI in assay [7], in assay [8], in assay [9] and in [10] was > 100 µM in each case.
As to `OC1(c2ccc(Cl)cc2)c2c(c3ccccc3c3ccccc23)C2=NCCN21` (stereo not given), the TGI in assay [1] is 47.8 µM; in assay [2] it was 45.6 µM; in assay [3] it was > 100 µM; in assay [4] it was 43.7 µM; in assay [5], > 100 µM; in [6] it was 11 µM. In addition, the TGI stood at 28.8 µM in assay [7], 16.8 µM in [8], 24.9 µM in assay [9] and 24.2 µM in assay [10].
As for `O=c1c2cc(I)ccc2nc(SCc2nnco2)n1Cc1ccccc1`, the TGI in assay [1], in assay [2], in [3], in [4], in assay [5] and in assay [6] was > 100 µM each time. In addition, the TGI in assay [7], in [8], in assay [9] and in assay [10] was > 100 µM in each case.
On to `CC(=O)OCC1OC(n2c(N)c(C#N)c(-c3cccc(Cl)c3)c(C#N)c2=S)C(OC(C)=O)C(OC(C)=O)C1OC(C)=O` (stereo not given), for which the TGI in assay [1] is 38.9 µM; in assay [2] it was 82 µM; in assay [3], 59 µM; in assay [4] it was 45.5 µM; in assay [5] it was > 100 µM; in [6] it was > 100 µM. The TGI in [7] is > 100 µM; in assay [8], 54.2 µM; in assay [9], 39.4 µM; in assay [10], > 100 µM.
For `CN(/N=C/c1ccc(Cl)cc1)C1=NCCCCN1`, the TGI in assay [1], in assay [2], in assay [3], in assay [4], in [5] and in assay [6] was > 100 µM in each case. The TGI in assay [7], in assay [8], in [9] and in [10] was > 100 µM each time.
Consider `CCn1c(=O)c2c3ccc(OC)cc3[nH]c2c2ccc(OC)cc21`, for which the TGI in [1], in [2], in [3], in assay [4], in assay [5] and in [6] was > 100 µM each time. Also, the TGI in assay [7], in assay [8], in assay [9] and in assay [10] was > 100 µM in each case.
In the case of `CC(=O)O[C@H]1C[C@](C)(O)[C@@]23CC([C@@H](OC(=O)C(C)(C)O)[C@@H](OC(C)=O)C2(COC(=O)c2ccccc2)[C@H]1OC(C)=O)C(C)(C)O3` (stereo not given in full), the TGI in [1], in [2], in assay [3], in assay [4], in assay [5] and in assay [6] was > 100 µM each time. For the same compound, the TGI in [7], in assay [8], in assay [9] and in assay [10] was > 100 µM each time.
For `CC(=O)c1[nH]c(Nc2ccc(C)cc2)c(C(=S)Nc2ccccc2)c1N`, the TGI in [1] is 34.8 µM; in [2] it was 34.2 µM; in [3], 37.2 µM; in assay [4], 28.8 µM; in [5], 46.1 µM; in assay [6], 54.9 µM. Also, the TGI in assay [7] was 36.2 µM; in assay [8] it was 35.5 µM; in assay [9], 30.2 µM; in assay [10], 42.1 µM.
As for `Cc1ccc(N=C2SC(=NN(C)C)SC2=Nc2ccc(C)cc2)cc1`, the TGI in [1], in [2], in [3], in assay [4], in [5] and in assay [6] was > 100 µM each time. In addition, the TGI in assay [7], in assay [8], in assay [9] and in assay [10] was > 100 µM throughout.
On to `COc1cc([C@@H]2c3cc4c(cc3[C@@H](c3c(O)cc(O)c5c3O[C@H](c3ccc(O)c(O)c3)[C@H](OC(=O)c3cc(O)c(O)c(O)c3)C5)[C@H]3COC(=O)[C@H]23)OCO4)cc(OC)c1O`, for which the TGI in assay [1], in assay [2], in assay [3], in assay [4], in [5] and in assay [6] was > 100 µM each time. For the same compound, the TGI in assay [7], in [8], in assay [9] and in assay [10] was > 100 µM in each case.
Consider `COc1ccc(N2N=NN(C(C)C)/C2=C(/Cl)c2nnnn2-c2ccc(OC)cc2)cc1`, for which the TGI in assay [1] amounted to 31.3 µM; in assay [2], 22.7 µM; in assay [3], 15.3 µM; in [4], 30.5 µM; in assay [5], 31.4 µM; in assay [6], 11.6 µM. The TGI in [7] stood at 30.7 µM; in assay [8], 30.1 µM; in assay [9] it was 34.6 µM; in assay [10], 37.1 µM.
Turning to `CC(C)(C)OC(=O)n1c(Cl)c(C=O)c2ccccc21`, the TGI is 39.2 µM in assay [1]; 39.6 µM in [2]; > 100 µM in [3]; > 100 µM in [4]; 70.4 µM in assay [5]; > 100 µM in assay [6]. Besides, the TGI is 52.9 µM in [7], 53.4 µM in [8], 36.2 µM in assay [9] and 43 µM in [10].
Regarding `COc1cc(/C(=C2/O[C@@H]([C@H]3COC(C)(C)O3)[C@H]3OC(C)(C)O[C@@H]23)c2ccc3c(c2)OCO3)cc(OC)c1OC`, the GI50 is > 25 µM in assay [1]; > 25 µM in [2]; 14.5 µM in [3]; > 25 µM in assay [4]; > 25 µM in assay [5]; 8.81 µM in assay [6]. The GI50 in [7] was 4.68 µM; in [8], > 25 µM; in assay [9], > 25 µM; in assay [10], > 25 µM. In addition, the TGI in assay [1], in assay [2], in assay [3], in assay [4], in assay [5] and in [6] was > 25 µM in each case. Further, the TGI in assay [7], in [8], in [9] and in assay [10] was > 25 µM each time.
Turning to `COc1cccc([C@@H]2CC(=O)c3cc4c(cc3N2)OCO4)c1`, the TGI in assay [1], in assay [2], in assay [3], in assay [4], in assay [5] and in assay [6] was > 100 µM in each case. In addition, the TGI in [7], in assay [8], in assay [9] and in assay [10] was > 100 µM in each case.
For the compound `C[C@@]12C[C@@H](c3ccccc3O1)N1Cc3ccccc3CSC1=N2`, the TGI in assay [1], in assay [2], in assay [3], in assay [4], in [5] and in assay [6] was > 100 µM in each case. Besides, the TGI in assay [7], in assay [8], in assay [9] and in assay [10] was > 100 µM throughout.
`O=C(NNS(=O)(=O)c1ccccc1)c1csc(NC(=S)NC2CCCCC2)n1`: the TGI in assay [1] was > 100 µM; in assay [2], 81.5 µM; in assay [3], 52.9 µM; in [4], > 100 µM; in assay [5], > 100 µM; in [6], > 100 µM. The TGI is 93.6 µM in assay [7], > 100 µM in assay [8], 62.8 µM in [9] and > 100 µM in [10].
Consider `COC12C=CC(CC1)C(C)(C)C2OS(C)(=O)=O` (stereo not given), for which the TGI in assay [1], in assay [2], in assay [3], in [4], in [5] and in assay [6] was > 100 µM throughout. Besides, the TGI in assay [7], in assay [8], in [9] and in assay [10] was > 100 µM in each case.
As to `CCOC(=O)C(NC(=O)CC)(Nc1ccc(S(=O)(=O)Nc2ccc(OC)nn2)cc1)C(F)(F)F` (stereo not given), the TGI in assay [1], in assay [2], in assay [3], in assay [4], in assay [5] and in assay [6] was > 100 µM throughout. Moreover, the TGI in assay [7], in [8], in assay [9] and in assay [10] was > 100 µM throughout.
For the compound `O=C(/C=C/c1ccccc1)Oc1cccc(Br)c1`, the TGI in assay [1] was > 100 µM; in [2], > 100 µM; in assay [3] it was > 100 µM; in assay [4] it was > 100 µM; in assay [5], 42.2 µM; in assay [6], > 100 µM. In addition, the TGI in assay [7], in assay [8], in assay [9] and in [10] was > 100 µM throughout.
Regarding `N#Cc1c(N2CCCC2)nsc1Nc1ccc(F)cc1`, the TGI in assay [1], in assay [2], in assay [3], in assay [4], in [5] and in assay [6] was > 100 µM in each case. Also, the TGI in [7], in assay [8], in assay [9] and in [10] was > 100 µM throughout.
Turning to `O=C1O[C@H]2C3C4CCC(C4[C@@H]2I)[C@H]13` (stereo not given in full), the TGI in [1], in assay [2], in assay [3], in [4], in assay [5] and in assay [6] was > 100 µM in each case. The TGI in assay [7], in assay [8], in assay [9] and in assay [10] was > 100 µM in each case.
For `O=c1[nH]nc(Cc2ccc(Cl)cc2)n1/N=C/c1c[nH]c2ccccc12`, the TGI in assay [1], in assay [2], in assay [3], in assay [4], in assay [5] and in [6] was > 100 µM throughout. For the same compound, the TGI in [7], in assay [8], in assay [9] and in [10] was > 100 µM in each case.
For `CN(C)C=NCC(O)c1ccccc1` (stereo not given), the TGI in [1], in [2], in [3], in [4], in [5] and in assay [6] was > 100 µM in each case. Besides, the TGI in assay [7], in [8], in assay [9] and in assay [10] was > 100 µM in each case.
Turning to `COc1ccc(Cn2c3ccc([N+](=O)[O-])cc3c(=O)n2Cc2ccccn2)cc1`, the TGI is > 100 µM in assay [1]; > 100 µM in assay [2]; 77.4 µM in assay [3]; > 100 µM in [4]; > 100 µM in assay [5]; > 100 µM in assay [6]. Also, the TGI in assay [7], in assay [8], in assay [9] and in assay [10] was > 100 µM in each case.
As for `CC(C)=CCC[C@@H](C)C1=CC(=O)C(C)=C(O)C1=O`, the TGI stood at 16.1 µM in assay [1]; 15.7 µM in [2]; 6.35 µM in assay [3]; 34.9 µM in assay [4]; 8.08 µM in assay [5]; 14.2 µM in assay [6]. For the same compound, the TGI was found to be 10.8 µM in [7], 15.7 µM in assay [8], 24.3 µM in assay [9] and 25.7 µM in [10].
For the compound `O=C1C=C(O)c2c(O)ccc(O)c2C1=O`, the TGI in assay [1], in assay [2], in assay [3], in assay [4], in assay [5] and in assay [6] was > 100 µM each time. Also, the TGI in assay [7], in [8], in [9] and in assay [10] was > 100 µM each time.

Source of the values: PubChem BioAssay (NCI).
